Results as given in PubChem BioAssay AID330 (DTP/NCI, 2004).
Several values for one entry are separate records, joined by “and”; a condition that tells them apart may be missing. Identical values can stand only once. Toxic doses and inconclusive results are not listed. Peptide text beside a SMILES is read from it. * marks the point of attachment. Boc = CC(C)(C)OC(=O)*

System: P388 leukemia ip, CD2F1 mice, survival T/C
Assay: NCI In Vivo Anticancer Drug Screen. Data for tumor model P388 Leukemia (intraperitoneal) in CD2F1 (CDF1) mice
Settings: endpoint: median survival time, higher = longer survival
How it was run: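 Mice carrying the transplanted tumor received test compound or vehicle. Survival was recorded in each group, and the value is the treated-group measurement divided by that of the vehicle-treated control group.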

[1] = dose: 50.0 mg/kg/injection, schedule: Q01DX005 (ip), vehicle: Klucel (hydroxypropylcellulose) (HPC)
[2] = dose: 100.0 mg/kg/injection, schedule: Q01DX005 (ip), vehicle: Klucel (hydroxypropylcellulose) (HPC)
[3] = dose: 200.0 mg/kg/injection, schedule: Q01DX005 (ip), vehicle: Klucel (hydroxypropylcellulose) (HPC)
[4] = dose: 50.0 mg/kg/injection, schedule: Q01DX009 (ip), vehicle: saline
[5] = dose: 100.0 mg/kg/injection, schedule: Q01DX009 (ip), vehicle: saline
[6] = dose: 200.0 mg/kg/injection, schedule: Q01DX009 (ip), vehicle: saline
[7] = dose: 100.0 mg/kg/injection, schedule: Q01DX001 (ip), vehicle: saline with Tween-80
[8] = dose: 200.0 mg/kg/injection, schedule: Q01DX001 (ip), vehicle: saline with Tween-80
[9] = dose: 400.0 mg/kg/injection, schedule: Q01DX001 (ip), vehicle: saline with Tween-80
[10] = dose: 25.0 mg/kg/injection, schedule: Q01DX005 (ip), vehicle: Klucel (hydroxypropylcellulose) (HPC)
[11] = dose: 60.0 mg/kg/injection, schedule: Q01DX005 (ip), vehicle: Klucel (hydroxypropylcellulose) (HPC)
[12] = dose: 120.0 mg/kg/injection, schedule: Q01DX005 (ip), vehicle: Klucel (hydroxypropylcellulose) (HPC)
[13] = dose: 240.0 mg/kg/injection, schedule: Q01DX005 (ip), vehicle: Klucel (hydroxypropylcellulose) (HPC)
[14] = dose: 60.0 mg/kg/injection, schedule: Q01DX005 (ip), vehicle: saline with Tween-80
[15] = dose: 120.0 mg/kg/injection, schedule: Q01DX005 (ip), vehicle: saline with Tween-80
[16] = dose: 50.0 mg/kg/injection, schedule: Q01DX009 (ip), vehicle: Klucel (hydroxypropylcellulose) (HPC)
[17] = dose: 100.0 mg/kg/injection, schedule: Q01DX009 (ip), vehicle: Klucel (hydroxypropylcellulose) (HPC)
[18] = dose: 100.0 mg/kg/injection, schedule: Q01DX009 (ip), vehicle: saline with Tween-80

For `COC(=O)C(CO)NC(=O)C(Cc1ccccc1)NC(=O)OC(C)(C)C` (stereo not drawn) (Boc-Phe-Ser-OMe; configuration not given here), the T/C [1] was 99 % of control, the T/C [2] was 105 % of control and the T/C [3] was 100 % of control.
In the case of `CC(=O)NNC(=O)c1ccccn1`, the T/C (dose: 12.5 mg/kg/injection, schedule: Q01DX009 (ip), vehicle: saline) is reported as 90 % of control, the T/C (dose: 25.0 mg/kg/injection, schedule: Q01DX009 (ip), vehicle: saline) is reported as 92 % of control and the T/C [4] is reported as 96 % of control. The T/C (dose: 50.0 mg/kg/injection, schedule: Q01DX009 (ip), vehicle: water) was 110 % of control, the T/C (dose: 75.0 mg/kg/injection, schedule: Q01DX009 (ip), vehicle: water) was 110 % of control and the T/C [5] was 100 % of control. The T/C (dose: 100.0 mg/kg/injection, schedule: Q01DX009 (ip), vehicle: water) was 120 % of control, the T/C (dose: 125.0 mg/kg/injection, schedule: Q01DX009 (ip), vehicle: water) was 120 % of control and the T/C [6] was 88 % of control.
With `O=C1CS(=O)(=O)C(c2ccccn2)N1CCN1C(=O)CS(=O)(=O)C1c1ccccn1` (configuration not stated) the T/C [7] was 100 % of control and 101 % of control, the T/C (dose: 100.0 mg/kg/injection, schedule: Q04DX002 (ip), vehicle: saline with Tween-80) was 90 % of control and the T/C [8] was 92 % of control and 97 % of control. The T/C (dose: 200.0 mg/kg/injection, schedule: Q04DX002 (ip), vehicle: saline with Tween-80) was 98 % of control, the T/C [9] was 89 % of control and 101 % of control and the T/C (dose: 400.0 mg/kg/injection, schedule: Q04DX002 (ip), vehicle: saline with Tween-80) was 91 % of control.
`COc1cccc(C2OC3=C(Nc4ccccc4N3)C2=O)c1` (configuration not stated) was tested, and the T/C [10] was 98 % of control, the T/C [1] was 100 % of control and the T/C [11] was 97 % of control. For the same compound, the T/C [2] was 94 % of control, the T/C [12] was 95 % of control and the T/C [3] was 94 % of control. The T/C [13] was 94 % of control and the T/C (dose: 400.0 mg/kg/injection, schedule: Q01DX005 (ip), vehicle: Klucel (hydroxypropylcellulose) (HPC)) was 98 % of control.
In the case of `[CH3][Sn]1([CH3])[O]C(=O)CC(CC(=O)O)C(=O)[O]1` (configuration not stated), the T/C (dose: 12.5 mg/kg/injection, schedule: Q01DX005 (ip), vehicle: Klucel (hydroxypropylcellulose) (HPC)) is reported as 119 % of control, the T/C [10] is reported as 117 % of control and the T/C [1] is reported as 113 % of control and 117 % of control.
With `Cc1ccc2occ(-c3nnc(NC(=O)c4ccccc4)s3)c(=O)c2c1` the T/C [14] was 93 % of control and the T/C [15] was 86 % of control.
With `Nc1nc(N)c(C(=O)SCc2ccccc2)nc1Cl` the T/C [16] was 107 % of control, the T/C [17] was 95 % of control and the T/C (dose: 200.0 mg/kg/injection, schedule: Q01DX009 (ip), vehicle: Klucel (hydroxypropylcellulose) (HPC)) was 91 % of control.
In the case of `CCC1=C[C@H]2CN(CCc3c([nH]c4cc(Br)ccc34)[C@@](C(=O)OC)(c3cc4c(cc3OC)N(C)[C@H]3[C@@](O)(C(=O)OC)[C@H](OC(C)=O)[C@]5(CC)C=CCN6CC[C@]43[C@@H]65)C2)C1`, the T/C (dose: 1.0 mg/kg/injection, schedule: Q01DX001 (ip), vehicle: water) is reported as 113 % of control, the T/C (dose: 2.0 mg/kg/injection, schedule: Q01DX001 (ip), vehicle: water) is reported as 115 % of control and the T/C (dose: 3.9 mg/kg/injection, schedule: Q01DX001 (ip), vehicle: water) is reported as 118 % of control. For the same compound, the T/C (dose: 4.0 mg/kg/injection, schedule: Q01DX001 (ip), vehicle: water) was 122 % of control, the T/C (dose: 6.5 mg/kg/injection, schedule: Q01DX001 (ip), vehicle: water) was 119 % of control and the T/C (dose: 16.0 mg/kg/injection, schedule: Q01DX001 (ip), vehicle: water) was 153 % of control. The T/C (dose: 18.0 mg/kg/injection, schedule: Q01DX001 (ip), vehicle: water) was 169 % of control, the T/C (dose: 30.0 mg/kg/injection, schedule: Q01DX001 (ip), vehicle: water) was 173 % of control and the T/C (dose: 32.0 mg/kg/injection, schedule: Q01DX001 (ip), vehicle: water) was 185 % of control.
`Cn1ccn2cnnc2c1=O` was tested, and the T/C [7] was 100 % of control, the T/C [8] was 106 % of control and the T/C [9] was 99 % of control.
In the case of `NC(=O)NN=C(C(F)(F)F)C(F)(F)F`, the T/C (dose: 50.0 mg/kg/injection, schedule: Q01DX009 (ip), vehicle: saline with Tween-80) is reported as 110 % of control and the T/C [18] is reported as 101 % of control.
`CCn1c(=O)c2[nH]c(Br)nc2n(C2CC2)c1=O` was tested, and the T/C [16] was 104 % of control and the T/C [17] was 106 % of control.
With `O=C1C2CN(Cc3ccccc3)CC2C(=O)N1c1ccccc1` (configuration not stated) the T/C [11] was 102 % of control, the T/C [12] was 97 % of control and the T/C [13] was 100 % of control.
With `CC1NCCCN(CCN(C)C)CCCNC(C)c2cccc1n2` (configuration not stated) the T/C (dose: 50.0 mg/kg/injection, schedule: Q01DX001 (ip), vehicle: saline) was 103 % of control and 96 % of control, the T/C (dose: 100.0 mg/kg/injection, schedule: Q01DX001 (ip), vehicle: saline) was 101 % of control and 114 % of control and 92 % of control and the T/C (dose: 200.0 mg/kg/injection, schedule: Q01DX001 (ip), vehicle: saline) was 103 % of control and 122 % of control and 97 % of control.
`NC(=O)c1ncn(C2OC(CO)C(O)C2O)c1N` (configuration not stated) was tested, and the T/C [4] was 106 % of control and 109 % of control, the T/C [5] was 98 % of control and 95 % of control and the T/C [6] was 103 % of control and 108 % of control. For the same compound, the T/C (dose: 400.0 mg/kg/injection, schedule: Q01DX009 (ip), vehicle: saline) was 107 % of control and 87 % of control.
`Clc1ccc(C(Nc2nncs2)Nc2nncs2)cc1` was tested, and the T/C [14] was 94 % of control, the T/C [15] was 93 % of control and the T/C (dose: 240.0 mg/kg/injection, schedule: Q01DX005 (ip), vehicle: saline with Tween-80) was 98 % of control.
For `On1cnc(=S)c2[nH]cnc21`, the T/C [18] was 90 % of control, the T/C (dose: 100.0 mg/kg/injection, schedule: Q04DX003 (ip), vehicle: saline sonified) was 100 % of control and the T/C (dose: 200.0 mg/kg/injection, schedule: Q01DX009 (ip), vehicle: saline with Tween-80) was 100 % of control. For the same compound, the T/C (dose: 200.0 mg/kg/injection, schedule: Q04DX003 (ip), vehicle: saline sonified) was 100 % of control, the T/C (dose: 400.0 mg/kg/injection, schedule: Q01DX009 (ip), vehicle: saline with Tween-80) was 109 % of control and the T/C (dose: 400.0 mg/kg/injection, schedule: Q04DX003 (ip), vehicle: saline sonified) was 90 % of control.
With `O=C(Cc1nc2ccccc2[nH]1)C(F)(F)F` the T/C (dose: 100.0 mg/kg/injection, schedule: Q01DX001 (ip), vehicle: Klucel (hydroxypropylcellulose) (HPC)) was 104 % of control, the T/C (dose: 200.0 mg/kg/injection, schedule: Q01DX001 (ip), vehicle: Klucel (hydroxypropylcellulose) (HPC)) was 94 % of control and the T/C (dose: 400.0 mg/kg/injection, schedule: Q01DX001 (ip), vehicle: Klucel (hydroxypropylcellulose) (HPC)) was 101 % of control.
`COCC(=O)C(C(C)=O)C(c1ccc2c(c1)OCO2)C(C(C)=O)C(=O)COC` (configuration not stated) was tested, and the T/C (dose: 100.0 mg/kg/injection, schedule: Q04DX003 (ip), vehicle: saline with Tween-80) was 90 % of control, the T/C (dose: 200.0 mg/kg/injection, schedule: Q04DX003 (ip), vehicle: saline with Tween-80) was 90 % of control and the T/C (dose: 400.0 mg/kg/injection, schedule: Q04DX003 (ip), vehicle: saline with Tween-80) was 95 % of control.
With `O=[n+]1c2ccccc2n([O-])c2cn(-c3ccccc3)c(-c3ccccc3)c21` the T/C (dose: 50.0 mg/kg/injection, schedule: Q01DX005 (ip), vehicle: saline with Tween-80) was 100 % of control, the T/C (dose: 100.0 mg/kg/injection, schedule: Q01DX005 (ip), vehicle: saline with Tween-80) was 100 % of control and the T/C (dose: 200.0 mg/kg/injection, schedule: Q01DX005 (ip), vehicle: saline with Tween-80) was 101 % of control.
With `CCCC(=O)O.CCCC(=O)O.CCCC(=O)O.CCCC(=O)O.O=P1(N(CCCl)CCCl)NCCCO1.O=P1(N(CCCl)CCCl)NCCCO1.[Rh].[Rh]` (configuration not stated) the T/C (dose: 0.13 mg/kg/injection, schedule: Q01DX009 (ip), vehicle: olive oil, sesame oil, peanut oil) was 103 % of control, the T/C (dose: 0.25 mg/kg/injection, schedule: Q01DX009 (ip), vehicle: olive oil, sesame oil, peanut oil) was 112 % of control and the T/C (dose: 0.5 mg/kg/injection, schedule: Q01DX009 (ip), vehicle: olive oil, sesame oil, peanut oil) was 101 % of control. For the same compound, the T/C (dose: 1.0 mg/kg/injection, schedule: Q01DX009 (ip), vehicle: olive oil, sesame oil, peanut oil) was 117 % of control.
